This passage reports normalised viability and normalised response results from the supplement of paper PMC4862054.

What all share (settings): incubation time: 72 h
The subject of assay [1] is MDA-MB-468. In words: normalised viability (% of control), CellTiter-Blue; higher = more viable cells (about 100 = DMSO control). Summed up: (§1)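 Each value is normalised viability at a single listed concentration of the series. Breast cancer cell lines in 384-well plates were incubated 72 h with compound and read by CellTiter-Blue fluorescence at 560/590 nm, with vehicle set to 100 and a positive kill control to 0 on every plate.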
For orientation: The colour change of resazurin is a common sign of viable cells or microbes.

In assay [2] the test system is MDA-MB-453. The assay is described as above. Summed up: as §1
For assay [3], the system named is CAL-51. Described as above. Summed up:
as §1

For assay [4], the system named is BT-549. The assay is described as above. Summed up: as §1
Assay [5] relates to SK-BR-3. The description is as above. The procedure, abridged:
as §1

For assay [6], the system named is CAL-120. Described as above. Summed up: as §1
In a further assay the test system is HDQ-P1. In words: normalised viability (% of control), CellTiter-Blue; higher = more viable cells (about 100 = DMSO control). Here is the method:
(§2)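 DSRT, CellTiter-Blue viability, 72 h incubation. Signal is normalised to DMSO and benzethonium chloride controls. Value is the normalised response at dose 3.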

A further assay deals with MDA-MB-231. The description is as above. Here is the method: as §2
The next assay deals with DU-4475. Described as above. Here is the method: as §2
The next assay has as its system HCC1143. Described as above. As for the experimental part:
as §2

The subject of the next assay is MDA-MB-436. Described as above. As for the experimental part:
as §2

Assay [7] relates to MDA-MB-468. The description is as above. As for the experimental part:
as §2
This is another data set of the same source.

In a further assay the test system is Hs578T. The assay is described as above. As for the experimental part:
as §2

Assay [8] relates to MDA-MB-453. The description is as above. Here is the method:
as §2
This is another data set of the same source.

The next assay relates to HCC1937. Described as above. As for the experimental part:
as §2

Assay [9] has as its system CAL-51. The assay is described as above. As for the experimental part: as §2
This is another data set of the same source.

Assay [10] has as its system BT-474. The assay is described as above. As for the experimental part:
as §2

Assay [11] concerns BT-549. The assay is described as above. Here is the method: as §2
This is another data set of the same source.

Assay [12] concerns SK-BR-3. Described as above. Here is the method: as §2
The source holds these as a separate data set.

Another assay relates to HCC1599. The assay is described as above. As for the experimental part: as §2
For a further assay, the system named is CAL-148. The description is as above. As for the experimental part:
as §2

Another assay relates to CAL-85-1. The assay is described as above. As for the experimental part: as §2
Assay [13] deals with CAL-120. Described as above. Here is the method:
as §2
This is another data set of the same source.

The next assay has as its system MFM-223. The description is as above. Here is the method: as §2
Assay [14] deals with CAL-51. The experiment in a line: normalised response (% of control), CellTiter-Glo; higher = more viable cells (100 = DMSO, 0 = benzethonium chloride kill control). Summed up:
(§3)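 Values are normalised signals, each belonging to one concentration of the series. Breast cancer cells (20 µl suspension) were seeded into 384-well plates with compound at 5 concentrations in 10-fold steps over a compound-specific 10,000-fold range and incubated 72 h. Readouts were CellTox Green fluorescence (485/520 nm), then CellTiter-Glo luminescence after 10 min at room temperature, with each plate set to 0.1 % DMSO as 100 and a positive kill control as 0.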
On the technique in general: Cellular ATP, detected with luciferase, serves as a proxy for viable cell number.

Assay [15] relates to BT-474. The description is as above. The procedure, abridged:
as §3

In the case of `CC1=C2C[C@H]3[C@@H](CC=C4C[C@@H](O)CC[C@@]43C)[C@@H]2CC[C@]12O[C@@H]1C[C@H](C)CN[C@H]1[C@H]2C` [Cyclopamine], the normalised viability in the assay on MDA-MB-468 [1] (10 nM) came to 100%; with MDA-MB-468 [1] (1000 nM) it was 102%; with MDA-MB-468 [1] (10000 nM), 90.9%; with MDA-MB-453 [2] (3 nM) it was 123%; in the assay with MDA-MB-453 [2] (30 nM), 101%; in the assay with MDA-MB-453 [2] (100 nM) it was 120%. The normalised viability stood at 114% in the assay on CAL-51 [3] (3 nM); 104% with CAL-51 [3] (30 nM); 111% in the assay with CAL-51 [3] (100 nM); 88.6% in the assay on BT-549 [4] (10 nM); 87.2% in the assay on BT-549 [4] (1000 nM); 92% with BT-549 [4] (10000 nM). For the same compound, the normalised viability in the assay with SK-BR-3 [5] (10 nM) is 103%; in the assay with SK-BR-3 [5] (1000 nM) it was 123%; with SK-BR-3 [5] (10000 nM), 103%; in the assay with CAL-120 [6] (10 nM), 98.1%; in the assay with CAL-120 [6] (1000 nM) it was 98.4%; with CAL-120 [6] (10000 nM) it was 97.3%. For the same compound, the normalised viability in the assay with HDQ-P1 (10 nM) was 120%; with MDA-MB-231 (100 nM), 84.9%; in the assay with DU-4475 (10 nM), 107%; in the assay with HCC1143 (100 nM), 116%; with MDA-MB-436 (100 nM), 96.3%; in the assay with MDA-MB-468 [7] (100 nM), 94.4%. The normalised viability in the assay with Hs578T (100 nM) was determined as 84.1%; in the assay on MDA-MB-453 [8] (10 nM), 123%; in the assay on HCC1937 (100 nM), 100%; in the assay with CAL-51 [9] (10 nM), 114%; in the assay with BT-474 [10] (100 nM) it was 124%; with BT-549 [11] (100 nM), 111%. Further, the normalised viability was determined as 90.8% in the assay with SK-BR-3 [12] (100 nM); 113% in the assay on HCC1599 (100 nM); 113% in the assay with CAL-148 (10 nM); 109% in the assay on CAL-85-1 (10 nM); 88.2% in the assay on CAL-120 [13] (100 nM); 103% in the assay on MFM-223 (100 nM).
On to `CC1=C2C[C@H]3[C@@H](CC=C4C[C@@H](O)CC[C@@]43C)[C@@H]2CC[C@]12O[C@@H]1C[C@H](C)CN[C@H]1[C@H]2C` [Cyclopamine] (1000 nM), for which the figures for the normalised response in the assay on CAL-51 [14] and with BT-474 [15] were 68% and 95.7%, respectively.
Taken in the same sequence, the figures for `CC(=O)O[C@@]12CO[C@@H]1C[C@H](O)[C@@]1(C)C(=O)[C@H](O)C3=C(C)[C@@H](OC(=O)[C@H](O)[C@@H](NC(=O)OC(C)(C)C)c4ccccc4)C[C@@](O)([C@@H](OC(=O)c4ccccc4)[C@H]21)C3(C)C` [Docetaxel] (100 nM) were 27.4% and 38.3%.
For the compound `C[C@]12CC[C@@H]3c4ccc(OC(=O)N(CCCl)CCCl)cc4CC[C@H]3[C@@H]1CC[C@@H]2O` [Estramustine], the normalised viability in the assay with MDA-MB-468 [1] (0.99 nM) came out at 102%; in the assay with MDA-MB-468 [1] (99 nM), 103%; with MDA-MB-468 [1] (990 nM), 117%; in the assay with MDA-MB-453 [2] (0.297 nM), 89.2%; in the assay on MDA-MB-453 [2] (2.97 nM) it was 102%; with MDA-MB-453 [2] (9.9 nM) it was 101%. Moreover, the normalised viability in the assay with CAL-51 [3] (0.297 nM) was found to be 88.7%; with CAL-51 [3] (2.97 nM), 86.3%; in the assay with CAL-51 [3] (9.9 nM) it was 86.7%; in the assay with BT-549 [4] (0.99 nM), 82.7%; in the assay on BT-549 [4] (99 nM), 89.6%; in the assay with BT-549 [4] (990 nM), 87.2%. Also, the normalised viability came to 99.1% with SK-BR-3 [5] (0.99 nM); 97.5% in the assay with SK-BR-3 [5] (99 nM); 101% in the assay with SK-BR-3 [5] (990 nM); 113% in the assay on CAL-120 [6] (0.99 nM); 107% with CAL-120 [6] (99 nM); 105% in the assay on CAL-120 [6] (990 nM). The normalised viability came to 109% in the assay on HDQ-P1 (0.99 nM); 93.8% with MDA-MB-231 (9.9 nM); 85.1% with DU-4475 (0.99 nM); 105% with HCC1143 (9.9 nM); 92.1% in the assay with MDA-MB-436 (9.9 nM); 108% with MDA-MB-468 [7] (9.9 nM). Besides, the normalised viability came out at 102% in the assay with Hs578T (9.9 nM); 100% in the assay with MDA-MB-453 [8] (0.99 nM); 101% in the assay with HCC1937 (9.9 nM); 88.3% in the assay on CAL-51 [9] (0.99 nM); 113% with BT-474 [10] (9.9 nM); 79.8% in the assay on BT-549 [11] (9.9 nM). Further, the normalised viability with SK-BR-3 [12] (9.9 nM) came out at 106%; in the assay on HCC1599 (9.9 nM), 91.4%; in the assay on CAL-148 (0.99 nM), 113%; in the assay with CAL-85-1 (0.99 nM) it was 111%; in the assay with CAL-120 [13] (9.9 nM), 102%; in the assay on MFM-223 (9.9 nM), 95.9%.
Consider `CC1(C)CNc2cc(NC(=O)c3cccnc3NCc3ccncc3)ccc21` [Motesanib] (1000 nM), for which the normalised response with CAL-51 [14] was determined as 85.7%; with BT-474 [15], 91.9%.
Regarding `C[C@]1(O)C[C@@H](c2nc(-c3ccc4ccc(-c5ccccc5)nc4c3)c3c(N)nccn32)C1` [OSI-906], the normalised viability turned out to be 104% with MDA-MB-468 [1] (10 nM); 86.5% with MDA-MB-468 [1] (1000 nM); 84.6% in the assay with MDA-MB-468 [1] (10000 nM); 97.9% in the assay with MDA-MB-453 [2] (3 nM); 92.9% in the assay on MDA-MB-453 [2] (30 nM); 78.6% in the assay on MDA-MB-453 [2] (100 nM). The normalised viability in the assay on CAL-51 [3] (3 nM) came out at 91.2%; with CAL-51 [3] (30 nM), 97.5%; with CAL-51 [3] (100 nM), 96.3%; in the assay on BT-549 [4] (10 nM), 95.4%; in the assay with BT-549 [4] (1000 nM), 89.1%; with BT-549 [4] (10000 nM), 41.3%. The normalised viability came out at 88.7% with SK-BR-3 [5] (10 nM); 79.7% in the assay with SK-BR-3 [5] (1000 nM); 54.3% in the assay on SK-BR-3 [5] (10000 nM); 96.6% in the assay on CAL-120 [6] (10 nM); 84.2% in the assay on CAL-120 [6] (1000 nM); 56.2% in the assay on CAL-120 [6] (10000 nM). Moreover, the normalised viability was 76% in the assay on HDQ-P1 (10 nM); 83.8% in the assay with MDA-MB-231 (100 nM); 94.1% in the assay on DU-4475 (10 nM); 105% in the assay with HCC1143 (100 nM); 94.5% in the assay on MDA-MB-436 (100 nM); 98.6% with MDA-MB-468 [7] (100 nM). Also, the normalised viability with Hs578T (100 nM) worked out at 74.8%; in the assay on MDA-MB-453 [8] (10 nM), 86.6%; in the assay with HCC1937 (100 nM), 92.5%; in the assay with CAL-51 [9] (10 nM) it was 97.4%; with BT-474 [10] (100 nM), 110%; in the assay on BT-549 [11] (100 nM) it was 84.4%. Further, the normalised viability in the assay with SK-BR-3 [12] (100 nM) worked out at 78.3%; in the assay with HCC1599 (100 nM) it was 94.9%; in the assay with CAL-148 (10 nM), 101%; in the assay on CAL-85-1 (10 nM), 104%; with CAL-120 [13] (100 nM), 90%; with MFM-223 (100 nM), 95.5%.
Take `CC[C@@H]1C(=O)OC[C@@H]1Cc1cncn1C` [Pilocarpine] (4000 nM): the normalised response in the assay with CAL-51 [14] is 96.8%; with BT-474 [15], 92.2%.
Taken in the same sequence, the figures for `CC(C)(C)c1cnc(CSc2cnc(NC(=O)C3CCNCC3)s2)o1` [SNS-032] (1000 nM) were 9.15% and 20.2%.
The like results for `Cn1cnc2c(F)c(Nc3ccc(Br)cc3Cl)c(C(=O)NOCCO)cc21` [Selumetinib] (1000 nM) were, in that order, 110% and 67.8%.
The like results for `Nc1nc2[nH]cnc2c(=S)[nH]1` [Thioguanine] (1000 nM) were, in that order, 91.9% and 44.8%.
